According to patent publication US6395896B2, “Pyridazine derivatives, manufacturing method and related composition” (Shiseido Co., Ltd., priority 1999, dated 2002):

Tests used:
[1] = Drug stabilization effect (photostabilizer, sunlight exposure); parameters: key to Sunlight exposure (80 MJ) Appearance: A: No change; B: No almost change; C: Yes change; details: photostabilizer 0.05, amounts wt %
Protocol: Next, the photo stabilization effect and changes in appearance in drug compositions were studied according to the following evaluation formulation.
Each test sample was prepared. Appearance changes of the samples exposed to sunlight (80 MJ) was observed (visual evaluation). Also, residual yield was measured by liquid chromatography.

[2] = Perfume stabilization effect (photostabilizer, sunlight exposure, judgement by perfumier); parameters: key to Sunlight exposure (80 MJ) Smell evaluation / Sunlight exposure (80 MJ) evaluation: A: No change; B: No almost change; C: Yes change
Protocol: Next, the photostabilization effect for each perfume was studied by the following evaluation formulation.
Each test sample was prepared. Change of smell of sample exposed to sunlight (80 MJ) was observed (judgement by perfumier).

[3] = Colorant stabilization effect (photostabilizer, sunlight exposure); parameters: key to Sunlight exposure (80 MJ) Appearance: A: No change; B: No almost change; C: Yes change; key to Sunlight exposure (80 MJ) ΔE: ΔE color difference (Lab) vs. color before sunlight exposure; details: photostabilizer 0.05 wt %
Protocol: First of all, the photostabilization effect and appearance change of a composition in each pigment were studied by the following evaluation formulation.
Each test sample was prepared. Observation of appearance change (visual evaluation) and measurement of color difference (ΔE) were carried out in samples exposed to sunlight exposure (around 80 MJ).
Color difference was measured by Lab coordinate system with spectrophotometer. Color difference was calculated on the basis of the color before sunlight exposure. Namely, from measured value (L1,a1,b1) before sunlight exposure, color difference (ΔE) was calculated by following formula.

[4] = Perfume stabilization effect (sequestering agent combination); parameters: key to Sunlight exposure (80 MJ) Smell evaluation: A: No change; B: No almost change; C: Yes change
Protocol: Next, for combinations with sequestering agent, photostabilization effect for each perfume was studied by the following evaluation formulation.
Each test sample was prepared. Smell change of samples exposed to sunlight (80 MJ) was observed (judgement by perfumier).

[5] = Pigment stabilization effect (sequestering agent combination); parameters: key to Sunlight exposure (80 MJ) Appearance: A: No change; B: No almost change; C: Yes change; key to Sunlight exposure (80 MJ) ΔE: color difference ΔE in Lab space vs. color before sunlight exposure; details: photostabilizer 0, amounts wt %
Protocol: First of all, the photostabilization effect and appearance changes of a composition for each pigment were studied by the following evaluation formulation.
Each test sample was prepared. Observation of appearance changes (visual evaluation) and measurement of color difference (ΔE) were carried out for samples exposed to sunlight (around 80 MJ).
Color difference was measured by Lab coordinate system with spectrophotometer. Color difference was calculated based on the color before sunlight exposure. Namely, from the measured value (L1,a1,b1) before sunlight exposure, color difference (ΔE) was calculated by following formula.

[6] = drug 2-o-α-α-glucopyranosyl-L-ascorbic acid 2.0
[7] = drug Dibutylhydroxytoluene 0.01
[8] = drug Dipotassium glycyrrhizinate 0.05
[9] = drug L-ascorbic acid 2-(dl-α-tocopheryl hydrogen phosphate) potassium salt 0.01
[10] = Base perfume Fruity 0.03 wt %, photostabilizer 0.1 wt %
[11] = Base perfume Muguet 0.03 wt %, photostabilizer 0.05 wt %
[12] = Base perfume Rose 0.03 wt %, photostabilizer 0.05 wt %
[13] = Base perfume Spicy 0.03 wt %, photostabilizer 0.2 wt %
[14] = Base perfume Woody 0.03 wt %, photostabilizer 0.1 wt %
[15] = Natural perfume Jasmine oil 0.03 wt %, photostabilizer 0.05 wt %
[16] = Natural perfume Lavender oil 0.03 wt %, photostabilizer 0.1 wt %
[17] = Natural perfume Neroli oil 0.03 wt %, photostabilizer 0.1 wt %
[18] = Natural perfume Rose oil 0.03 wt %, photostabilizer 0.05 wt %
[19] = Natural perfume Ylang ylang oil 0.03 wt %, photostabilizer 0.2 wt %
[20] = Synthetic perfume Citral 0.03 wt %, photostabilizer 0.1 wt %
[21] = Synthetic perfume Limonene 0.03 wt %, photostabilizer 0.05 wt %
[22] = Synthetic perfume Linalool 0.03 wt %, photostabilizer 0.05 wt %
[23] = Synthetic perfume Linalyl acetate 0.03 wt %, photostabilizer 0.1 wt %
[24] = Synthetic perfume Rose oxide 0.03 wt %, photostabilizer 0.2 wt %
[25] = Red No. 106 0.00001 wt % + Yellow No. 5 0.0001 wt %
[26] = Red No. 106 0.00001 wt % + Yellow No. 203 0.0001 wt %
[27] = Red No. 213 0.00001 wt % + Blue No. 1 0.00001 wt %
[28] = Red No. 227 0.0001 wt % + Yellow No. 5 0.0001 wt %
[29] = Red No. 227 0.0001 wt % + Yellow No. 203 0.0001 wt %
[30] = Red No. 401 0.0001 wt % + Blue No. 1 0.00001 wt %
[31] = Red No. 401 0.0001 wt % + Green No. 3 0.00001 wt %
[32] = Yellow No. 203 0.0001 wt % + Yellow No. 5 0.0001 wt %
[33] = colorant Green No. 3 0.0001, sequestering agent 0.03 alone
[34] = colorant Red No. 106 0.0001, sequestering agent 0.02 alone
[35] = colorant Red No. 401 0.001, sequestering agent 0.1 alone
[36] = colorant Yellow No. 5 0.001, sequestering agent 0.02 alone

COc1ccc(C(=O)c2ccccc2)c(O)c1 [2-Hydroxy-4-methoxybenzophenone, reference compound]
Sunlight exposure (80 MJ) Appearance [1, 6]: B | Sunlight exposure (80 MJ) Residual yield [%] [1, 6]: 97.3% | Sunlight exposure (80 MJ) Appearance [1, 7]: B | Sunlight exposure (80 MJ) Residual yield [%] [1, 7]: 95.2% | Sunlight exposure (80 MJ) Appearance [1, 8]: B | Sunlight exposure (80 MJ) Residual yield [%] [1, 8]: 97.8% | Sunlight exposure (80 MJ) Appearance [1, 9]: B | Sunlight exposure (80 MJ) Residual yield [%] [1, 9]: 95.4% | Sunlight exposure (80 MJ) Appearance ([1]; drug Salicylic acid 0.1): B | Sunlight exposure (80 MJ) Residual yield [%] ([1]; drug Salicylic acid 0.1): 98.2% | Sunlight exposure (80 MJ) Smell evaluation [2, 10]: B | Sunlight exposure (80 MJ) Smell evaluation [2, 11]: B | Sunlight exposure (80 MJ) Smell evaluation [2, 12]: B | Sunlight exposure (80 MJ) Smell evaluation [2, 13]: B | Sunlight exposure (80 MJ) Smell evaluation [2, 14]: B | Sunlight exposure (80 MJ) Smell evaluation [2, 15]: B | Sunlight exposure (80 MJ) Smell evaluation [2, 16]: B | Sunlight exposure (80 MJ) Smell evaluation [2, 17]: B | Sunlight exposure (80 MJ) Smell evaluation [2, 18]: B | Sunlight exposure (80 MJ) Smell evaluation [2, 19]: B | Sunlight exposure (80 MJ) Smell evaluation [2, 20]: B | Sunlight exposure (80 MJ) Smell evaluation [2, 21]: B | Sunlight exposure (80 MJ) Smell evaluation [2, 22]: B | Sunlight exposure (80 MJ) Smell evaluation [2, 23]: B | Sunlight exposure (80 MJ) Smell evaluation [2, 24]: B | Sunlight exposure (80 MJ) Appearance ([3]; Blue No. 1 0.0001 wt %): B | Sunlight exposure (80 MJ) ΔE ([3]; Blue No. 1 0.0001 wt %): 1.76 | Sunlight exposure (80 MJ) Appearance ([3]; Green No. 3 0.0001 wt %): B | Sunlight exposure (80 MJ) ΔE ([3]; Green No. 3 0.0001 wt %): 0.75 | Sunlight exposure (80 MJ) Appearance [3, 25]: B | Sunlight exposure (80 MJ) ΔE [3, 25]: 1.18 | Sunlight exposure (80 MJ) Appearance [3, 26]: B | Sunlight exposure (80 MJ) ΔE [3, 26]: 1.11 | Sunlight exposure (80 MJ) Appearance ([3]; Red No. 106 0.0001 wt %): B | Sunlight exposure (80 MJ) ΔE ([3]; Red No. 106 0.0001 wt %): 1.01 | Sunlight exposure (80 MJ) Appearance [3, 27]: B | Sunlight exposure (80 MJ) ΔE [3, 27]: 1.26 | Sunlight exposure (80 MJ) Appearance ([3]; Red No. 213 0.0001 wt %): B | Sunlight exposure (80 MJ) ΔE ([3]; Red No. 213 0.0001 wt %): 1.34 | Sunlight exposure (80 MJ) Appearance [3, 28]: B | Sunlight exposure (80 MJ) ΔE [3, 28]: 0.88 | Sunlight exposure (80 MJ) Appearance [3, 29]: B | Sunlight exposure (80 MJ) ΔE [3, 29]: 1.05 | Sunlight exposure (80 MJ) Appearance ([3]; Red No. 227 0.0001 wt %): B | Sunlight exposure (80 MJ) ΔE ([3]; Red No. 227 0.0001 wt %): 0.71 | Sunlight exposure (80 MJ) Appearance [3, 30]: B | Sunlight exposure (80 MJ) ΔE [3, 30]: 0.82 | Sunlight exposure (80 MJ) Appearance [3, 31]: B | Sunlight exposure (80 MJ) ΔE [3, 31]: 1.06 | Sunlight exposure (80 MJ) Appearance ([3]; Red No. 401 0.001 wt %): B | Sunlight exposure (80 MJ) ΔE ([3]; Red No. 401 0.001 wt %): 1.18 | Sunlight exposure (80 MJ) Appearance ([3]; Yellow No. 5 0.001 wt %): B | Sunlight exposure (80 MJ) ΔE ([3]; Yellow No. 5 0.001 wt %): 0.82 | Sunlight exposure (80 MJ) Appearance [3, 32]: A | Sunlight exposure (80 MJ) ΔE [3, 32]: 0.52 | Sunlight exposure (80 MJ) Appearance ([3]; Yellow No. 203 0.001 wt %): B | Sunlight exposure (80 MJ) ΔE ([3]; Yellow No. 203 0.001 wt %): 0.88

COc1cc(O)c(C(=O)c2ccccc2)cc1S(=O)(=O)[O-].[Na+] [2-Hydroxy-4-methoxybenzophenone-5-sodium sulfonate, reference compound]
Sunlight exposure (80 MJ) Appearance [1, 6]: B | Sunlight exposure (80 MJ) Residual yield [%] [1, 6]: 97.8% | Sunlight exposure (80 MJ) Appearance [1, 7]: B | Sunlight exposure (80 MJ) Residual yield [%] [1, 7]: 94.8% | Sunlight exposure (80 MJ) Appearance [1, 8]: B | Sunlight exposure (80 MJ) Residual yield [%] [1, 8]: 97.5% | Sunlight exposure (80 MJ) Appearance [1, 9]: B | Sunlight exposure (80 MJ) Residual yield [%] [1, 9]: 95.0% | Sunlight exposure (80 MJ) Appearance ([1]; drug Salicylic acid 0.1): B | Sunlight exposure (80 MJ) Residual yield [%] ([1]; drug Salicylic acid 0.1): 98.0% | Sunlight exposure (80 MJ) Smell evaluation [2, 10]: B | Sunlight exposure (80 MJ) Smell evaluation [2, 11]: B | Sunlight exposure (80 MJ) Smell evaluation [2, 12]: B | Sunlight exposure (80 MJ) Smell evaluation [2, 13]: B | Sunlight exposure (80 MJ) Smell evaluation [2, 14]: B | Sunlight exposure (80 MJ) Smell evaluation [2, 15]: B | Sunlight exposure (80 MJ) Smell evaluation [2, 16]: B | Sunlight exposure (80 MJ) Smell evaluation [2, 17]: B | Sunlight exposure (80 MJ) Smell evaluation [2, 18]: B | Sunlight exposure (80 MJ) Smell evaluation [2, 19]: B | Sunlight exposure (80 MJ) Smell evaluation [2, 20]: B | Sunlight exposure (80 MJ) Smell evaluation [2, 21]: B | Sunlight exposure (80 MJ) Smell evaluation [2, 22]: B | Sunlight exposure (80 MJ) Smell evaluation [2, 23]: B | Sunlight exposure (80 MJ) Smell evaluation [2, 24]: B | Sunlight exposure (80 MJ) Appearance ([3]; Blue No. 1 0.0001 wt %): B | Sunlight exposure (80 MJ) ΔE ([3]; Blue No. 1 0.0001 wt %): 1.67 | Sunlight exposure (80 MJ) Appearance ([3]; Green No. 3 0.0001 wt %): B | Sunlight exposure (80 MJ) ΔE ([3]; Green No. 3 0.0001 wt %): 0.74 | Sunlight exposure (80 MJ) Appearance ([3]; Red No. 106 0.0001 wt %): B | Sunlight exposure (80 MJ) ΔE ([3]; Red No. 106 0.0001 wt %): 0.98 | Sunlight exposure (80 MJ) Appearance ([3]; Red No. 213 0.0001 wt %): B | Sunlight exposure (80 MJ) ΔE ([3]; Red No. 213 0.0001 wt %): 1.28 | Sunlight exposure (80 MJ) Appearance ([3]; Red No. 227 0.0001 wt %): B | Sunlight exposure (80 MJ) ΔE ([3]; Red No. 227 0.0001 wt %): 0.80 | Sunlight exposure (80 MJ) Appearance ([3]; Red No. 401 0.001 wt %): B | Sunlight exposure (80 MJ) ΔE ([3]; Red No. 401 0.001 wt %): 1.39 | Sunlight exposure (80 MJ) Appearance ([3]; Yellow No. 5 0.001 wt %): B | Sunlight exposure (80 MJ) ΔE ([3]; Yellow No. 5 0.001 wt %): 0.78 | Sunlight exposure (80 MJ) Appearance ([3]; Yellow No. 203 0.001 wt %): B | Sunlight exposure (80 MJ) ΔE ([3]; Yellow No. 203 0.001 wt %): 0.76

O=C([O-])CNCCN(CC(=O)[O-])CC(=O)[O-].[Na+].[Na+].[Na+] [Trisodium ethylenediamine triacetate]
Sunlight exposure (80 MJ) Smell evaluation [4]: C

Sodium polyphosphate
Sunlight exposure (80 MJ) Appearance [5, 33]: C | Sunlight exposure (80 MJ) ΔE [5, 33]: 2.1 | Sunlight exposure (80 MJ) Appearance [5, 34]: C | Sunlight exposure (80 MJ) ΔE [5, 34]: 2.92 | Sunlight exposure (80 MJ) Appearance [5, 35]: C | Sunlight exposure (80 MJ) ΔE [5, 35]: 7.14 | Sunlight exposure (80 MJ) Appearance [5, 36]: C | Sunlight exposure (80 MJ) ΔE [5, 36]: 1.75
